Test [1] has as its system platelet-activating factor (PAF) biosynthesis in human polymorphonuclear neutrophils (PMN). Kind of test: platelet-activating factor biosynthesis in human polymorphonuclear neutrophils (in vitro phospholipase A2 assay). Type of test: cell-based. The following applies: Polymorphonuclear neutrophil, human PMN. How it is done:
(§1) The compounds of the invention are tested in an in vitro phospholipase A2 assay to determine the ability of the compounds to inhibit the biosynthesis of platelet-activating factor and LTB4 in purified human neutrophils.
(§2) A leukocyte enriched blood sample obtained from a healthy donor is procured by leukophoresis using a Haemonetics model 30+ blood processor (Biological Specialties, Inc., Lansdale, Penn.). The top "platelet-rich" layer is removed after a low speed spin (35 xg, 15 min, 25° C.) of the sample. The remaining cell suspension is centrifuged (400 xg, 10 min, 25° C.) to sediment the remaining cells. The supernatant is discarded and the cell pellet resuspended in 120 ml HBSS (without Ca^++ /Mg^++). The cell suspension is subjected to ficoll-hypaque sedimentation (Histopaque 1077, 400 xg, 30 min, 25° C.). Contaminating erythrocytes are lysed by hypotonic shock (1 min). The cells are then washed once with 40 ml of HBSS and resuspended with HBSS (without Ca^++ /Mg^++) to a concentration of 2.5×10^7 cells/ml for further use. Greater than 95% purity is obtained, as assessed by microscopic examination.
(§3) One ml of human PMN (2.5×10^7 cells/ml) is incubated with vehicle or drugs (10 μl) for 10 minutes at 30° C. After preincubation, an equal volume of HBSS (1 ml) containing 2.4 mM CaCl2, 6 μM calcium ionophore A23187 and 50 μCi [^3 H]-acetate is then incubated at 30° C. for 15 minutes. An aliquot (100 μl) of the reaction mixture is taken out and mixed with 900 μl of 15% ethanol. LTB4 is extracted by using solid phase extraction on reverse phase C18 columns to remove excess [^3 H]-acetate and PAD. The C18 column is prewashed once with 2 ml of ethanol and water. The sample aliquot is acidified with 0.1N HCl to pH 3 before applying to the column. The column is then washed with 2 ml of water followed by 2 ml of 15% ethanol and 2 ml of petroleum ether to remove excess labeled acetate. The sample is eluted with 2 ml of ethyl acetate. The collected samples are dried with nitrogen and resuspended in 0.5 ml RIA buffer. The quantity of LTB4 in the sample is obtained from RIA determination. For PAF determination, the reaction is terminated by addition of 5 ml chloroform:methanol:acetic acid (2:1:0.04, v/v/v). [^3 H]-PAF is obtained by Bligh and Dyer extraction. The chloroform phase is removed and dried under nitrogen. The residue is redissolved in 75 μl of chloroform:methanol (80:20, v/v). [^3 H]-PAF is resolved from other phospholipids by TLC on RPC18 plates with a solvent system of chloroform:methanol:water (2:3:1, v/v/v) and is quantitated using a Berthold automated TLC linear analyzer.
(§4) Data presented are the mean +/- s.d. of the values relative to control A23187 stimulated cells for each experiment assayed in triplicate. Percent inhibition when used is calculated as:
(§5) % Inhibition=100-[(x.div.Control)×100].
(§6) Dose response analysis is performed by non-linear regression analysis for curve fitting and IC50 determination.

The test system of test [2] is LTB4 biosynthesis in purified human neutrophils. Kind of test: LTB4 biosynthesis in human polymorphonuclear neutrophils (in vitro phospholipase A2 assay). Type of test: cell-based. The following applies: Neutrophil, human PMN. As to the method:
as §1, §2, §3, §4, §5, §6

In a further test the test system is cyclooxygenase (PGE2). Kind of test: resident murine peritoneal macrophage assay, PGE2. To be noted: Mus musculus, Peritoneal macrophage; for IC50: read-out: PGE2 zymosan IC50. The class given is cell-based, mouse (Swiss Webster). As to the method: The ability of the compounds of the invention to act as inhibitors of the enzymes 5-lipoxygenase and cyclooxygenase is measured in the resident murine peritoneal macrophage assay.
Resident peritoneal macrophages are collected from female Swiss Webster mice (49 days old, 20-25 gms, Buckshire) by lavaging with 7-8 ml Hanks Balanced Salt Solution (HBSS) without Ca^++ and Mg^++ (GIBCO). The lavage fluid from several mice is pooled and centrifuged at 4° C. for 10 minutes at 400 xg. The cell pellet is resuspended in Medium 199 (GIBCO) with HEPES buffer containing 100 μg/ml gentamicin. Two ml of the cell suspension (4×10^6 cells) are then plated on 35 mm culture dishes (Nunc).
A macrophage monolayer is established after a 1-1.5 hour incubation of the cells at 37° C. in an atmosphere of […] and 5% CO2. The monolayers are washed 2× with 2 ml HBDSS, containing Ca^++ and Mg^++ after which 2 ml Medium 199 supplemented with 10% freshly thawed heat-inactivated fetal bovine serum and 100 μg/ml gentamicin is added for an overnight incubation.
Residual serum and cellular debris are removed from the monolayers by washing 3× with 2 ml HBSS containing Ca^++ and Mg^++. Macrophages are preincubated for 5 minutes with 1 ml serum-free M199 containing 10 μl dimethyl sulfoxide (DMSO) vehicle or test compound prior to cell activation with zymosan ([…]) or arachidonic acid (AA) (2 μM). After 2 hours, the supernatants are removed and either assayed for LTC4 and PGE2 by radioimmunoassay (RIA) directly or stored at -20° C. In all cases, results are expressed as ng metabolite/4×10^6 cells.
Raw data (dpm) may be stored directly onto an "Autostart" tape using the HP85 in room C-096. The raw data are converted to ng metabolite/4-10^6cells using the standard curve by a "RIANAL" program (HP85) or a "NONLIN" program (HP9816). Results are then expressed as percent inhibition of zymosan induced, leukotriene or prostaglandin synthesis (control) using the equation: [formula]

[3] abbreviates: arachidonic acid stimulation, read-out: PGE2 AA % Inhibition.
Where [4] appears, read: zymosan stimulation, read-out: PGE2 zymosan % Inhibition.

Read-outs that look alike come from different tables or passages of the source.

Drawing on US5242945A, “Tetronic and thiotetronic acid derivatives as phospholipase A2 inhibitors” (American Home Products Corporation, priority 1991, dated 1993), this text covers inhibition and IC50 for 14 compounds.

Regarding `CCCCCCCCCC(=O)C1=C(O)COC1=O` [Example 1, 4-Hydroxy-3-(1-oxodecyl)-2(5H)-furanone], in test [1], the inhibition – broadly, the relative decrease from the control value, in per cent – at 10 µM came to 13%; the inhibition at 25 µM stood at 32%; the inhibition at 50 µM came out at 68%. Moreover, in test [2], the inhibition at 10 µM was found to be 37% and the inhibition at 25 µM stood at 46%. The IC50 (in general, the concentration that gives 50% inhibition) with cyclooxygenase (PGE2) (zymosan stimulation) stood at 3000 nM.

Regarding `CCCCCCCC/C=C\CCCCCCCC(=O)C1=C(O)COC1=O` [Example 9, (Z)-4-Hydroxy-3-(1-oxo-9-octadecenyl)-2(5H)-furanone], the inhibition at 50 µM in test [1] was 56%; in test [2], 100%. Moreover, the inhibition at 0.3 µM with cyclooxygenase (PGE2) (setting [3]) was determined as 4%. Also, in the test with cyclooxygenase (PGE2) (zymosan stimulation), the IC50 worked out at 200 nM.

Take `CCCCC/C=C\C/C=C\CCCCCCCC(=O)C1=C(O)COC1=O` [Example 14, (Z,Z)-4-Hydroxy-3-(1-oxo-9,12-octadecadienyl)-2(5H)-furanone]: in test [1], the inhibition at 10 µM came to 16%, the inhibition at 25 µM was found to be 19% and the inhibition at 50 µM came to 64%. In test [2], the inhibition at 10 µM turned out to be 30% and the inhibition at 25 µM was -5%. Further, the inhibition at 5 µM with cyclooxygenase (PGE2) (arachidonic acid stimulation, 5 μM, read-out: PGE2 AA % Inhibition) turned out to be 38%. Further, the IC50 in the test on cyclooxygenase (PGE2) (zymosan stimulation) was found to be 4000 nM.

With `CC/C=C\C/C=C\C/C=C\CCCCCCCC(=O)C1=C(O)COC1=O` [Example 15, (Z,Z,Z)-4-Hydroxy-3-(1-oxo-9,12,15-octadecatrienyl)-2(5H)-furanone], the inhibition at 50 µM in test [1] came out at 21%; in test [2], 68%. The concentration for half-maximal inhibition (IC50) with cyclooxygenase (PGE2) (zymosan stimulation) worked out at 350 nM.

`CCCCCCCCCCC/C=C\CCCCC(=O)C1=C(O)COC1=O` [Example 18, (Z)-4-Hydroxy-3-(1-oxo-6-octadecenyl)-2(5H)-furanone]: in test [1], the inhibition at 25 µM is 53% and the inhibition at 50 µM is 47%. The inhibition at 25 µM in test [2] stood at 83%. Besides, the inhibition at 0.3 µM in the test on cyclooxygenase (PGE2) (setting [3]) was -17%. Also, the IC50 with cyclooxygenase (PGE2) (zymosan stimulation) was 140 nM.

As for `CCCCC/C=C\C/C=C\C/C=C\CCCCC(=O)C1=C(O)COC1=O` [Example 20, (Z,Z,Z)-4-Hydroxy-3-(1-oxo-6,9,12-octadecatrienyl)-2(5H)-furanone], the inhibition at 50 µM in test [1] is 83%; in test [2], 95%. Further, in the test on cyclooxygenase (PGE2) (arachidonic acid stimulation, 1.0 μM, read-out: PGE2 AA % Inhibition), the inhibition at 1 µM was 1%. Also, the IC50 in the test on cyclooxygenase (PGE2) (zymosan stimulation) was 700 nM.

With `CCCCCC1CC1CC1CC1CCCCCCCC(=O)C1=C(O)COC1=O` (stereo not shown) [Example 22, 4-Hydroxy-3-[1-oxo-8-[2-[(2-pentylcyclopropyl)methyl]cyclopropyl]octyl]-2(5H)-furanone], in test [1], the inhibition at 10 µM came out at 24%, the inhibition at 25 µM came out at 49% and the inhibition at 50 µM worked out at 67%. Also, in test [2], the inhibition at 10 µM worked out at 93% and the inhibition at 25 µM was 91%. For the same compound, in the test on cyclooxygenase (PGE2) (zymosan stimulation), the IC50 came out at 200 nM.

On to `CCCC/C=C\CCCCCCCC(=O)C1=C(O)COC1=O` [Example 25, 4-Hydroxy-3-((Z)-1-oxo-9-tetradecenyl)-2(5H)-furanone], for which the inhibition at 50 µM in test [1] was determined as 47%; in test [2], 97%. For the same compound, the inhibition at 10 µM in test [2] was 74%. Moreover, in the test on cyclooxygenase (PGE2) (zymosan stimulation), the IC50 turned out to be 200 nM.

As for `O=C(CCCCCCC/C=C\c1ccc(Cl)cc1)C1=C(O)COC1=O` [Example 35, 3-[(Z)-10-(4-chlorophenyl)-1-oxo-9-decenyl]-4-hydroxy-2(5H)-furanone], the inhibition at 50 µM in test [1] amounted to 5%. For the same compound, in test [2], the inhibition at 10 µM turned out to be 81.6% and the inhibition at 50 µM came to 98.5%. The IC50 in the test with cyclooxygenase (PGE2) (zymosan stimulation) was 150 nM.

Take `CCCCC/C=C\C/C=C\CCCCCCCC(=O)C1=C(O)CSC1=O` [Example 46, 4-Hydroxy-3[(Z,Z)-1-oxo-9,12-octadecadienyl]-2(5H)-thiophenone]: in test [1], the inhibition at 25 µM was 7% and the inhibition at 50 µM came out at 50%. The inhibition at 50 µM in test [2] stood at 39%. Moreover, in the test on cyclooxygenase (PGE2) (setting [3]), the inhibition at 0.5 µM is 5%. Besides, in the test on cyclooxygenase (PGE2) (zymosan stimulation), the inhibition at 0.1 µM is 51.9% and the half-inhibitory concentration (IC50) was 100 nM.

Take `CCCCCCCC/C=C\CCCCCCCC(=O)C1=C(O)CSC1=O` [Example 47, 4-Hydroxy-3-[(Z)-1-oxo-9-octadecenyl]-2(5H)-thiophenone]: the inhibition at 50 µM in test [1] came out at 35%. In test [2], the inhibition at 50 µM is 47%. In addition, the inhibition at 0.3 µM in the test with cyclooxygenase (PGE2) (setting [3]) was -26%. Besides, in the test with cyclooxygenase (PGE2) (zymosan stimulation), the inhibition at 0.1 µM is 48.4% and the IC50 came to 100 nM.

On to `CCCC/C=C\CCCCCCCC(=O)C1=C(O)CSC1=O` [Example 48, 4-Hydroxy-3-[(Z)-1-oxo-9-tetra-decenyl]-2(5H)-thiophenone], for which the inhibition at 25 µM in test [1] was determined as 76%; in test [2], 86%. Moreover, the inhibition at 0.3 µM in the test with cyclooxygenase (PGE2) (setting [3]) is -16%. Besides, the inhibition at 0.03 µM in the test with cyclooxygenase (PGE2) (zymosan stimulation, 0.03 μM) was 25.4%. For the same compound, the inhibition at 0.1 µM in the test on cyclooxygenase (PGE2) (zymosan stimulation) stood at 71.8%.

Take `CCCCC/C=C\C/C=C\C/C=C\CCCCC(=O)C1=C(O)CSC1=O` [Example 50, 4-Hydroxy-3-[(Z,Z,Z)-1-oxo-6,9,12-octadecatrienyl]-2(5H)-thiophenone]: the inhibition at 10 µM in test [1] was 42%. The inhibition at 25 µM in test [2] is 100%. In addition, the inhibition at 0.5 µM was -35% with cyclooxygenase (PGE2) (setting [3]) and 70.1% with cyclooxygenase (PGE2) (setting [4]). Further, the inhibition at 0.1 µM with cyclooxygenase (PGE2) (zymosan stimulation) is 21.6%.

As to `CCCCCCCCCCC/C=C\CCCCC(=O)C1=C(O)CSC1=O` [Example 51, 4-Hydroxy-3-[(Z)-1-oxo-6-octadecenyl]-2(5H)-thiophenone], the inhibition at 50 µM in test [1] worked out at 70%. In the test with cyclooxygenase (PGE2) (zymosan stimulation), the inhibition at 0.1 µM was determined as 0.5%. For the same compound, in the test on cyclooxygenase (PGE2) (setting [4]), the inhibition at 0.5 µM is 91.3%.
